# Laboratory results published in patent US9943485B2, “Bioactive compounds protection method and compositions containing the same” (priority 2003, dated 2018).
# How the values were obtained:
# [1] = Effects of dietary insulin in milk replacer on weight gain in bovine neonates; type: in vivo, Friesy and Charole' calves; details: calves, 600 MicroUnits insulin/cc of liquid milk replacer
# Excerpt: 100 Friesy and Charole' calves in ages 12-15 days from birth, were used. Each calf received a milk replacer, of up to 6 liters a day, until the 37th day from birth. From the 37th day, milk replacer quantity was reduced by 0.5 liters every 2 days while simultaneously, pellet quantity increased, until the calf's 57 days old, when it is considered fully weaned. Calves in the experimental group receive 600 MicroUnits/cc. of liquid milk replacer. Calves in the control group receive no insulin at all. Daily growth in grams per each 1 Kg. of birth weight was measured and calculated for each calf.
# [2] = Effects of feed formula enriched with encapsulated insulin on lambs' weight gain, disease incidence and death rate; type: in vivo, Assaf specie lambs; details: one study
# Excerpt: More than 1,000 Assaf specie lambs over a period of 12 months at the age of 2-3 days from birth, were used. The growing period was divided into two periods: 3-28 days from birth, during which the lambs were exclusively fed by a milk replacer; and 29-75 days from birth, during which the lambs were fed by post-weaning mix/mash. Lambs in the study groups received between 600 MicroUnits-3,000 MicroUnits of insulin/ml. of milk replacer, and between 1,600 MicroUnits-5,000 MicroUnits of insulin/gr. of mix/mash.
# A liquid blend, of 4 Kilograms of Maltodextrin, 40 Liters of Saline 0.9% and 100,000 IU (International Units) of insulin was blended (e.g., 25 IU insulin per 1 g of Maltodextrin). The liquid blend was then freeze-dried. The product of the process was maltodextrin encapsulated insulin. 97% of the bioactive properties of the insulin were maintained after the freeze-drying process. A premix of 10 Kg. was prepared from standard milk powder and the maltodextrin encapsulated insulin. The premix was then blended with 740 Kg. of standard milk replacer product, to generate 750 Kg. of insulin enriched commercial milk replacer.
substance,measurement,setting,value
insulin,average daily weight growth in grams per each Kg. of birth weight,[1]; at the end of the study period,22.47 g/Kg birth weight
same,more weight gained compared with the control group,[1]; between day 17 and day 67 after birth,up to 26%
same,lambs survived at marketing,"[2]; insulin fed group started with 70 newly born lambs, 150 days after birth",68 lambs
same,death rate,"[2]; insulin fed group, 70 lambs, at marketing (150 days after birth)",2.8%
same,death rate lower compared with the control group,[2]; insulin-fed group 2.8% vs control 11.6% death rate,74.8%
